Experiment [1] deals with UM-UC-9 engineered cells. Description: Cell proliferation / short-term viability assay, CellTiter-Glo 144 h. The experiment is classed as cell-based, human. To be noted: read-out: CTGlo 144 h UMUC9.5, G150. The method, boiled down:
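UM-UC-9 engineered assay-ready cells seeded at 500 cells/well in high-glucose DMEM/10% FBS, treated from dose-response plates, grown at 37° C, 5% CO2. CellTiter-Glo 2.0 luminescence read on day 7, with a day-0 pretreatment plate as T0 reference and DMSO wells as negative control.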
Background: Cellular ATP, detected with luciferase, serves as a proxy for viable cell number.

In experiment [2] the target is T1, His6-TEV-PPARγ-(234-505) (Homo sapiens, UniProt P37231).
T1 construct: The His6-TEV-PPARγ-(234-505) protein for assay was expressed and purified; TEV cleavage site (N); made in house
T1 sequence (P37231 234-505): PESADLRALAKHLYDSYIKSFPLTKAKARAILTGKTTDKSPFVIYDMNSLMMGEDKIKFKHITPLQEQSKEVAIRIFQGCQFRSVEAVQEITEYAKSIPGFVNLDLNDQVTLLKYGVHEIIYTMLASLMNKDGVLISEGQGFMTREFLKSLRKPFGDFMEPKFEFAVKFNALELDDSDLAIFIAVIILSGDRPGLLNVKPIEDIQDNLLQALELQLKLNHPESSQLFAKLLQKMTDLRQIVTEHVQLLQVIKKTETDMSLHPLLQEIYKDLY
The experiment is described as follows: TR-FRET Assay to Measure Co-R Peptide Recruitment to PPARγ. The experiment is classed as biochemical. To be noted: Co-R peptide (SMRT-ID2) recruitment; top final concentration 20 μM; read-out: TR-FRET i-Ag; AC50. Summed up: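 His-tagged PPARγ (or controls) was preincubated with compound for 20 minutes at room temperature, then 5 nM anti-His terbium antibody and 200 nM FITC-labeled SMRT-ID2 corepressor peptide (final) were added for a further hour. TR-FRET signal was normalized to percent response using 500 nM T0070907 and DMSO controls.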

Read-outs that look alike come from different tables or passages of the source. Some results are limits rather than exact numbers.

Here are results for 16 compounds from US12606541B2, “PPARg modulators and methods of use” (Eisai R&D Management Co., Ltd., priority 2020, dated 2026).

As for `COc1cc(-c2cc(C(=O)N3CC[C@H](C(=O)NCc4nc(N5C[C@@H](C)N(C)[C@@H](C)C5)oc4C(F)(F)F)CC34CC4)n[nH]2)c(F)cn1` [Example 485, (S)-4-(5-(5-fluoro-2-methoxypyridin-4-yl)-N-pyrazole-3-carbonyl)-N-((5-(trifluoromethyl)-2-((3S,5R)-3,4,5-trimethylpiperazin-1-yl)oxazol-4-yl)methyl)-4-azaspiro[2.5]octane-7-carboxamide], the IC50 in experiment [1] (Homo sapiens, UM-UC-9, 144 h) came to 350 nM. Also, in experiment [2], the AC50 stood at 26.7 nM.

On to `COc1cc(-c2cc(C(=O)N3CCC(C(=O)NCc4cccc(Cl)c4)CC3)n[nH]2)c(F)cn1` [Example 159, N-(3-chlorobenzyl)-1-(5-(5-fluoro-2-methoxypyridin-4-yl)-1H-pyrazole-3-carbonyl)piperidine-4-carboxamide], for which, in experiment [1] (Homo sapiens, UM-UC-9, 144 h), the IC50 turned out to be 62.4 nM. Also, the AC50 in experiment [2] was found to be 27.1 nM.

On to `COc1cc(-c2cc(C(=O)N3C4COCC3CC(C(=O)N[C@H]3CC[C@@](O)(C(F)(F)F)CC3)C4)n[nH]2)c(F)cn1` (some centres unmarked) [Example 282, 9-(5-(5-fluoro-2-methoxypyridin-4-yl)-1H-pyrazole-3-carbonyl)-N-((1r,4r)-4-hydroxy-4-(trifluoromethyl)cyclohexyl)-3-oxa-9-azabicyclo[3.3.1]nonane-7-carboxamide], for which the IC50 in experiment [1] (Homo sapiens, UM-UC-9, 144 h) was 293 nM. Further, the AC50 in experiment [2] was 59 nM.

Turning to `N#Cc1cc(-c2cc(C(=O)N3CCC(C(=O)NC4CCC(O)(C(F)(F)F)CC4)CC34CC4)n[nH]2)ncn1` (single isomer, unassigned) [Example 528-A], the IC50 in experiment [1] is above 10000 nM. In addition, the AC50 in experiment [2] is 2090 nM.

Regarding `COc1cc(-c2cc(C(=O)N3CCC(C(=O)NC4CCCn5cc(C(F)(F)F)nc54)CC34CC4)n[nH]2)c(F)cn1` (mixture of isomers) [Example 502, (S)-4-(5-(5-fluoro-2-methoxypyridin-4-yl)-1H-pyrazole-3-carbonyl)-N—((S)-2-(trifluoromethyl)-5,6,7,8-tetrahydroimidazo[1,2-a]pyridin-8-yl)-4-azaspiro[2.5]octane-7-carboxamide and (S)-4-(5-(5-fluoro-2-methoxypyridin-4-yl)-1H-pyrazole-3-carbonyl)-N—((R)-2-(trifluoromethyl)-5,6,7,8-tetrahydroimidazo[1,2-a]pyridin-8-yl)-4-azaspiro[2.5]octane-7-carboxamide], the IC50 in experiment [1] is 50.6 nM. Further, the AC50 in experiment [2] worked out at 11.8 nM.

`COc1cc(-c2cc(C(=O)N3CCC(NC(=O)C4CCC(O)(C(F)(F)F)CC4)CC34CC4)n[nH]2)c(F)cn1` (single isomer, unassigned) [Example 347-A]: the IC50 in experiment [1] was 396 nM. For the same compound, in experiment [2], the AC50 came to 81.6 nM.

For `COc1cc(-c2cc(C(=O)N3[C@@H]4CC[C@H]3C[C@H](C(=O)N[C@H]3CC[C@](O)(C(F)(F)F)CC3)C4)n[nH]2)c(F)cn1` [Example 170-B, (1R,3s,5S)-8-(5-(5-fluoro-2-methoxypyridin-4-yl)-1H-pyrazole-3-carbonyl)-N-((1s,4S)-4-hydroxy-4-(trifluoromethyl)cyclohexyl)-8-azabicyclo[3.2.1]octane-3-carboxamide], the IC50 in experiment [1] (Homo sapiens, UM-UC-9, 144 h) was 3560 nM. The AC50 in experiment [2] came to 1110 nM.

On to `COc1cc(-c2cc(C(=O)N3CCC(C(=O)NCC4COC(C)(C)O4)CC3)n[nH]2)c(Cl)cn1` (racemic) [Example 185, 1-(5-(5-chloro-2-methoxypyridin-4-yl)-1H-pyrazole-3-carbonyl)-N-((2,2-dimethyl-1,3-dioxolan-4-yl)methyl)piperidine-4-carboxamide], for which, in experiment [1] (Homo sapiens, UM-UC-9, 144 h), the IC50 worked out at 1550 nM. Further, the AC50 in experiment [2] came out at 735 nM.

As to `Cc1cc(-c2cc(C(=O)N3CC[C@H](C(=O)NCc4ncccc4C4CC4)CC34CC4)[nH]n2)c(F)cn1` (racemic) [Example 506, (S)—N-((3-cyclopropylpyridin-2-yl)methyl)-4-(3-(5-fluoro-2-methylpyridin-4-yl)-1H-pyrazole-5-carbonyl)-4-azaspiro[2.5]octane-7-carboxamide and (R)—N-((3-cyclopropylpyridin-2-yl)methyl)-4-(3-(5-fluoro-2-methylpyridin-4-yl)-1H-pyrazole-5-carbonyl)-4-azaspiro[2.5]octane-7-carboxamide], the IC50 in experiment [1] (Homo sapiens, UM-UC-9, 144 h) worked out at 20.6 nM. The AC50 in experiment [2] amounted to 10.3 nM.

For the compound `Cc1cc(-c2cc(C(=O)N3[C@@H]4CC[C@H]3C[C@H](C(=O)N[C@H]3CC[C@@](O)(C(F)(F)F)CC3)C4)n[nH]2)c(F)cn1` [Example 283, (1R,3R,5S)-8-[5-(5-fluoro-2-methylpyridin-4-yl)-1H-pyrazole-3-carbonyl]-N-[(1r,4r)-4-hydroxy-4-(trifluoromethyl)cyclohexyl]-8-azabicyclo[3.2.1]octane-3-carboxamide], the IC50 in experiment [1] (Homo sapiens, UM-UC-9, 144 h) was found to be 70.8 nM. Besides, in experiment [2], the AC50 amounted to 7.5 nM.

Take `COc1cc(-c2cc(C(=O)N3CCC(C(=O)NC4CCC(C)(C)N(C)C4)CC34CC4)n[nH]2)c(F)cn1` (mixture of isomers) [Example 424, (S)-4-(5-(5-fluoro-2-methoxypyridin-4-yl)-1H-pyrazole-3-carbonyl)-N—((R)-1,6,6-trimethylpiperidin-3-yl)-4-azaspiro[2.5]octane-7-carboxamide and (S)-4-(5-(5-fluoro-2-methoxypyridin-4-yl)-1H-pyrazole-3-carbonyl)-N—((S)-1,6,6-trimethylpiperidin-3-yl)-4-azaspiro[2.5]octane-7-carboxamide]: in experiment [1], the IC50 was determined as 1950 nM. Also, in experiment [2], the AC50 worked out at 942 nM.

For `COc1cc(-c2cc(C(=O)N3CC[C@H](C(=O)Nc4cnn5ccc(C)nc45)CC34CC4)n[nH]2)c(F)cn1` [Example 381, (S)-4-(5-(5-fluoro-2-methoxypyridin-4-yl)-1H-pyrazole-3-carbonyl)-N-(5-methylpyrazolo[1,5-a]pyrimidin-3-yl)-4-azaspiro[2.5]octane-7-carboxamide], the IC50 in experiment [1] (Homo sapiens, UM-UC-9, 144 h) is 5.8 nM. For the same compound, the AC50 in experiment [2] was 12.3 nM.

With `COc1cc(-c2cc(C(=O)N3CC[C@H](C(=O)NC4CN(C5CCOC5)C4)CC34CC4)n[nH]2)c(F)cn1` (single isomer, unassigned) [Example 433-A], the IC50 in experiment [1] is 347 nM. Moreover, the AC50 in experiment [2] came to 126 nM.

With `COc1cc(-c2cc(C(=O)N3CC[C@H](C(=O)NCc4ncc(F)cc4Cl)CC34CC4)n[nH]2)c(F)cn1` [Example 362, (S)—N-((3-chloro-5-fluoropyridin-2-yl)methyl)-4-(5-(5-fluoro-2-methoxypyridin-4-yl)-1H-pyrazole-3-carbonyl)-4-azaspiro[2.5]octane-7-carboxamide], the IC50 in experiment [1] (Homo sapiens, UM-UC-9, 144 h) turned out to be 8.7 nM. The AC50 in experiment [2] was determined as 3.7 nM.

On to `COc1cc(-c2cc(C(=O)N3CCC(C(=O)NCc4ccc5cn[nH]c5c4)CC3)n[nH]2)c(Cl)cn1` [Example 180, N-((1H-indazol-6-yl)methyl)-1-(5-(5-chloro-2-methoxypyridin-4-yl)-1H-pyrazole-3-carbonyl)piperidine-4-carboxamide], for which the IC50 in experiment [1] (Homo sapiens, UM-UC-9, 144 h) came to 707 nM. In addition, in experiment [2], the AC50 came out at 144 nM.

Turning to `COc1cc(-c2cc(C(=O)N3CCC(C(=O)NCc4ncoc4C(F)(F)F)CC3)n[nH]2)c(Cl)cn1` [Example 221, 1-(5-(5-chloro-2-methoxypyridin-4-yl)-1H-pyrazole-3-carbonyl)-N-((5-(trifluoromethyl)oxazol-4-yl)methyl)piperidine-4-carboxamide], the IC50 in experiment [1] (Homo sapiens, UM-UC-9, 144 h) was 1730 nM. Further, in experiment [2], the AC50 turned out to be 279 nM.
